Laboratory results as given in PubChem BioAssay (NCI).
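Grown in 96-well plates, cells were treated for 48 hours with each compound at five concentrations. Insufficient inhibition: endpoint recorded as highest concentration tested. Definition used: TGI = concentration required for complete inhibition of growth.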

Key:
Experiment in all cases: NCI tumour cell line growth inhibition, 48 h
SF-539 CNS = tested on: SF-539 CNS
SK-OV-3 ovarian = tested on: SK-OV-3 ovarian
CCRF-CEM leukemia = tested on: CCRF-CEM leukemia
OVCAR-8 ovarian = tested on: OVCAR-8 ovarian
SF-295 CNS = tested on: SF-295 CNS
DU-145 prostate = tested on: DU-145 prostate
SF-268 CNS = tested on: SF-268 CNS
EKVX NSCLC = tested on: EKVX NSCLC
PC-3 prostate = tested on: PC-3 prostate
HCT-116 colon = tested on: HCT-116 colon
NCI-H23 lung = tested on: NCI-H23 lung
COLO 205 colon = tested on: COLO 205 colon
U251 CNS = tested on: U251 CNS
HOP-62 NSCLC = tested on: HOP-62 NSCLC
SK-MEL-5 melanoma = tested on: SK-MEL-5 melanoma
TK-10 renal = tested on: TK-10 renal
NCI-H460 lung = tested on: NCI-H460 lung
NCI-H226 lung = tested on: NCI-H226 lung
KM12 colon = tested on: KM12 colon
SNB-19 CNS = tested on: SNB-19 CNS
SN12C renal = tested on: SN12C renal
SW-620 colon = tested on: SW-620 colon
RXF 393 renal = tested on: RXF 393 renal
MDA-N = tested on: MDA-N
A549 NSCLC = tested on: A549 NSCLC
MCF7 breast = tested on: MCF7 breast
SNB-75 CNS = tested on: SNB-75 CNS
A498 renal = tested on: A498 renal
HCC-2998 colon = tested on: HCC-2998 colon
SK-MEL-2 melanoma = tested on: SK-MEL-2 melanoma
OVCAR-4 ovarian = tested on: OVCAR-4 ovarian
SR leukemia = tested on: SR leukemia
HS 578T breast = tested on: HS 578T breast
RPMI-8226 leukemia = tested on: RPMI-8226 leukemia
UACC-257 melanoma = tested on: UACC-257 melanoma
NCI/ADR-RES ovarian = tested on: NCI/ADR-RES ovarian
HL-60(TB) leukemia = tested on: HL-60(TB) leukemia
OVCAR-3 ovarian = tested on: OVCAR-3 ovarian
HT29 colon = tested on: HT29 colon
SK-MEL-28 melanoma = tested on: SK-MEL-28 melanoma
ACHN renal = tested on: ACHN renal
M14 melanoma = tested on: M14 melanoma
HOP-92 NSCLC = tested on: HOP-92 NSCLC
K-562 leukemia = tested on: K-562 leukemia
MDA-MB-231 breast = tested on: MDA-MB-231 breast
NCI-H522 lung = tested on: NCI-H522 lung
HCT-15 colon = tested on: HCT-15 colon
MOLT-4 leukemia = tested on: MOLT-4 leukemia
786-0 renal = tested on: 786-0 renal
UACC-62 melanoma = tested on: UACC-62 melanoma
MDA-MB-435 = tested on: MDA-MB-435
T-47D breast = tested on: T-47D breast
BT-549 breast = tested on: BT-549 breast
CAKI-1 renal = tested on: CAKI-1 renal
IGROV1 ovarian = tested on: IGROV1 ovarian
MALME-3M melanoma = tested on: MALME-3M melanoma
OVCAR-5 ovarian = tested on: OVCAR-5 ovarian

Measured: TGI

CC(CC[C@@H](O)C(C)(C)O)C1[C@@H](O)CC2(C)C3CC(O)C4C(C)(C)[C@@H](OC5OC(CO)C(O)C(O)C5O)CC[C@@]45C[C@@]35CC[C@]12C (some centres not stated)
> 10 µM: all assays above
